These compounds were tested on SU-DHL-4 cells (assay: Inhibitory effect on cell viability (Cell Counting Kit-8)). Conditions: Homo sapiens, 72 hours culture with test compound, concentration showing 90% inhibition rate of cell viability.
Assay type: cell-based
How it was run: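 SU-DHL-4 cells (2000/well, RPMI1640 with 10% FBS) precultured 18-25 h, then exposed to a 9-step compound dilution series (0.1% DMSO final) for 72 h at 37° C. Viability by CCK-8 absorbance at 450 nm after 2-3 h; IC90 computed from inhibition rate relative to untreated and cell-free wells.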
Work on `Cc1sc2c(c1C)C(c1ccc(NC(=O)C#CCNC(=O)c3ccc(C4=NCc5nnc(C)n5-c5sc(C)c(C)c54)cc3)cc1)=NCc1nnc(C)n1-2` [Compound 14e, N-(4-Oxo-4-((4-(2,3,9-trimethyl-6H-thieno[3,2-f][1,2,4]triazolo[4,3-a][1,4]diazepin-4-yl)phenyl)amino)but-2-yn-1-yl)-4-(2,3,9-trimethyl-6H-thieno[3,2-f][1,2,4]triazolo[4,3-a][1,4]diazepin-4-yl)benzamide] yielded an IC90 of 0.26 nM.
`CCC(=O)N1c2ccccc2[C@H](Nc2ccc(NC(=O)CNC(=O)Nc3ccc(C4=NCc5nnc(C)n5-c5sc(C)c(C)c54)cc3)cc2)C[C@@H]1C` [Compound 14f, N-(4-(((2S,4R)-2-Methyl-1-propionyl-1,2,3,4-tetrahydroquinolin-4-yl)amino)phenyl)-2-(3-(4-(2,3,9-trimethyl-6H-thieno[3,2-f][1,2,4]triazolo[4,3-a][1,4]diazepin-4-yl)phenyl)ureido)acetamide] gave an IC90 of 0.31 nM.
In the case of `CCC(=O)N1c2ccccc2[C@H](Nc2ccc(C(=O)NCC#CC(=O)Nc3ccc(C4=NCc5nnc(C)n5-c5sc(C)c(C)c54)cc3)cc2)C[C@@H]1C` [Compound 14g, 4-(((2S,4R)-2-Methyl-1-propionyl-1,2,3,4-tetrahydroquinolin-4-yl)amino)-N-(4-oxo-4-((4-(2,3,9-trimethyl-6H-thieno[3,2-f][1,2,4]triazolo[4,3-a][1,4]diazepin-4-yl)phenyl)amino)but-2-yn-1-yl)benzamide], the IC90 was 0.03 nM.
Compound `CCC(=O)N1c2ccccc2[C@H](Nc2ccc(NC(=O)NCC(=O)Nc3ccc(C4=NCc5nnc(C)n5-c5sc(C)c(C)c54)cc3)cc2)C[C@@H]1C` [Compound 14h, 2-(3-(4-(((2S,4R)-2-Methyl-1-propionyl-1,2,3,4-tetrahydroquinolin-4-yl)amino)phenyl)ureido)-N-(4-(2,3,9-trimethyl-6H-thieno[3,2-f][1,2,4]triazolo[4,3-a][1,4]diazepin-4-yl)phenyl)acetamide] has an IC90 of 0.34 nM.
`CCC(=O)N1c2ccccc2[C@H](Nc2ccc(NC(=O)C#CCNC(=O)c3ccc(C4=NCc5nnc(C)n5-c5sc(C)c(C)c54)cc3)cc2)C[C@@H]1C` [Compound 14i, N-(4-((4-(((2S,4R)-2-Methyl-1-propionyl-1,2,3,4-tetrahydroquinolin-4-yl)amino)phenyl)amino)-4-oxobut-2-yn-1-yl)-4-(2,3,9-trimethyl-6H-thieno[3,2-f][1,2,4]triazolo[4,3-a][1,4]diazepin-4-yl)benzamide] gave an IC90 of 0.03 nM.
Compound `CCC(=O)N1c2ccccc2[C@H](Nc2ccc(C(=O)NCc3ccc(-c4ccc(C5=NCc6nnc(C)n6-c6sc(C)c(C)c65)cc4)s3)cc2)C[C@@H]1C` [Compound 14j, 4-(((2S,4R)-2-Methyl-1-propionyl-1,2,3,4-tetrahydroquinolin-4-yl)amino)-N-((5-(4-(2,3,9-trimethyl-6H-thieno[3,2-f][1,2,4]triazolo[4,3-a][1,4]diazepin-4-yl)phenyl)thiophen-2-yl)methyl)benzamide] has an IC90 of 0.74 nM.
Work on `CCC(=O)N1c2ccccc2[C@H](Nc2ccc(C(=O)NC3CN(C(=O)c4ccc(C5=NCc6nnc(C)n6-c6sc(C)c(C)c65)cc4)C3)cc2)C[C@@H]1C` [Compound 14k, 4-(((2S,4R)-2-Methyl-1-propionyl-1,2,3,4-tetrahydroquinolin-4-yl)amino)-N-(1-(4-(2,3,9-trimethyl-6H-thieno[3,2-f][1,2,4]triazolo[4,3-a][1,4]diazepin-4-yl)benzoyl)azetidin-3-yl)benzamide] yielded an IC90 of 1.8 nM.
For `CCC(=O)N1c2ccccc2[C@H](Nc2ccc(C(=O)NCCC(=O)Nc3ccc(C4=NCc5nnc(C)n5-c5sc(C)c(C)c54)cc3)cc2)C[C@@H]1C` [Compound 14m, 4-(((2S,4R)-2-Methyl-1-propionyl-1,2,3,4-tetrahydroquinolin-4-yl)amino)-N-(3-oxo-3-((4-(2,3,9-trimethyl-6H-thieno[3,2-f][1,2,4]triazolo[4,3-a][1,4]diazepin-4-yl)phenyl)amino)propyl)benzamide], the IC90 was 1.45 nM.
`CCC(=O)N1c2ccccc2[C@H](Nc2ccc(-n3cc(CNC(=O)c4ccc(C5=NCc6nnc(C)n6-c6sc(C)c(C)c65)cc4)nn3)cc2)C[C@@H]1C` [Compound 14n, N-((1-(4-(((2S,4R)-2-Methyl-1-propionyl-1,2,3,4-tetrahydroquinolin-4-yl)amino)phenyl)-1H-1,2,3-triazol-4-yl)methyl)-4-(2,3,9-trimethyl-6H-thieno[3,2-f][1,2,4]triazolo[4,3-a][1,4]diazepin-4-yl)benzamide] was tested, and the IC90 was 0.05 nM.
`Cc1sc2c(c1C)C(c1ccc(C(=O)NCC(=O)CNC(=O)c3ccc(C4=NCc5nnc(C)n5-c5sc(C)c(C)c54)cc3)cc1)=NCc1nnc(C)n1-2` [Compound 14o, N,N′-(2-Oxopropane-1,3-diyl)bis(4-(2,3,9-trimethyl-6H-thieno[3,2-f][1,2,4]triazolo[4,3-a][1,4]diazepin-4-yl)benzamide)] gave an IC90 of 30.9 nM.
`Cc1sc2c(c1C)C(c1ccc(C(=O)N3CCC(NC(=O)c4ccc(C5=N[C@@H](CC(=O)OC(C)(C)C)c6nnc(C)n6-c6sc(C)c(C)c65)cc4)CC3)cc1)=NCc1nnc(C)n1-2` [Compound 14p, tert-Butyl (S)-2-(2,3,9-trimethyl-4-(4-((1-(4-(2,3,9-trimethyl-6H-thieno[3,2-f][1,2,4]triazolo[4,3-a][1,4]diazepin-4-yl)benzoyl)piperidin-4-yl)carbamoyl)phenyl)-6H-thieno[3,2-f][1,2,4]triazolo[4,3-a][1,4]diazepin-6-yl)acetate] was tested, and the IC90 was 1.27 nM.
For `CCC(=O)N1c2ccccc2[C@H](Nc2ccc(C(=O)NCc3cn(-c4ccc(C5=NCc6nnc(C)n6-c6sc(C)c(C)c65)cc4)nn3)cc2)C[C@@H]1C` [Compound 14q, 4-(((2S,4R)-2-Methyl-1-propionyl-1,2,3,4-tetrahydroquinolin-4-yl)amino)-N-((1-(4-(2,3,9-trimethyl-6H-thieno[3,2-f][1,2,4]triazolo[4,3-a][1,4]diazepin-4-yl)phenyl)-1H-1,2,3-triazol-4-yl)methyl)benzamide], the IC90 was 0.17 nM.
Work on `CCC(=O)N1c2ccccc2[C@H](Nc2ccc(-c3cn4c(n3)CN(C(=O)c3ccc(C5=NCc6nnc(C)n6-c6sc(C)c(C)c65)cc3)CC4)cc2)C[C@@H]1C` [Compound 14r, 1-((2S,4R)-2-Methyl-4-((4-(7-(4-(2,3,9-trimethyl-6H-thieno[3,2-f][1,2,4]triazolo[4,3-a][1,4]diazepin-4-yl)benzoyl)-5,6,7,8-tetrahydroimidazo[1,2-a]pyrazin-2-yl)phenyl)amino)-3,4-dihydroquinolin-1(2H)-yl)propan-1-one] yielded an IC90 of 1.47 nM.
In the case of `CCC(=O)N1c2ccccc2[C@H](Nc2ccc(SCCNC(=O)c3ccc(C4=NCc5nnc(C)n5-c5sc(C)c(C)c54)cc3)cc2)C[C@@H]1C` [Compound 14s, N-(2-((4-(((2S,4R)-2-Methyl-1-propionyl-1,2,3,4-tetrahydroquinolin-4-yl)amino)phenyl)thio)ethyl)-4-(2,3,9-trimethyl-6H-thieno[3,2-f][1,2,4]triazolo[4,3-a][1,4]diazepin-4-yl)benzamide], the IC90 was 2.2 nM.
Compound `CCC(=O)N1c2ccccc2[C@H](Nc2ccc(-c3nnc(CNC(=O)c4ccc(Cn5c(C(=O)OCCN(C)C)cc6c5CCCC6=O)cc4)o3)cc2)C[C@@H]1C` [Compound 15b, 2-(Dimethylamino)ethyl 1-(4-(((5-(4-(((2S,4R)-2-methyl-1-propionyl-1,2,3,4-tetrahydroquinolin-4-yl)amino)phenyl)-1,3,4-oxadiazol-2-yl)methyl)carbamoyl)benzyl)-4-oxo-4,5,6,7-tetrahydro-1H-indole-2-carboxylate] has an IC90 of 1.07 nM.

— patent US12054494B2, “Compound with anticancer activity” (KYOWA KIRIN CO., LTD., priority 2018, dated 2024)
